Data reported in patent US10202361B2, “Pyridazinones as herbicides” (E I DU PONT DE NEMOURS AND COMPANY, priority 2014, dated 2019).

Columns and labels:
Test in all cases: Test C pre-/postemergence greenhouse herbicide test
Assay type in all cases: in vivo
[1] = system: velvetleaf (Abutilon theophrasti); conditions: Preemergence; for pest or weed control at 62 g/ha: 62 g ai/ha; for Plant response rating, Velvetleaf: visual rating on scale 0 (no effect) to 100 (complete control), 13 to 15 d
Description: (§1) Seeds of plant species selected from blackgrass (Alopecurus myosuroides), bromegrass, downy (downy bromegrass, Bromus tectorum), foxtail, green (green foxtail, Setaria viridis), ryegrass, Italian (Italian ryegrass, Lolium multiflorum), wheat (winter wheat, Triticum aestivum), oat, wild (wild oat, Avena fatua), galium (catchweed bedstraw, Galium aparine), bermudagrass (Cynodon dactylon), surinam grass (Brachiaria decumbens), cocklebur (common cocklebur, Xanthium strumarium), corn (Zea mays), crabgrass, large (large crabgrass, Digitaria sanguinalis), cupgrass, woolly (woolly cupgrass, Eriochloa villosa), foxtail, giant (giant foxtail, Setaria faberii), goosegrass (Eleusine indica), johnsongrass (Sorghum halepense), kochia (Kochia scoparia), lambsquarters (Chenopodium album), morningglory (Ipomoea coccinea), nightshade (eastern black nightshade, Solanum ptycanthum), nutsedge, yellow (yellow nutsedge, Cyperus esculentus), pigweed (Amaranthus retroflexus), ragweed (common ragweed, Ambrosia elatior), soybean (Glycine max), sunflower (common oilseed sunflower, Helianthus annuus), Russian thistle (Salsola kali), barnyardgrass (Echinochloa crus-galli), oilseed rape (Brassica napus), waterhemp (common waterhemp, Amaranthus rudis), and velvetleaf (Abutilon theophrasti) were planted into a blend of loam soil and sand and treated preemergence with test chemicals formulated in a non-phytotoxic solvent mixture which included a surfactant.
(§2) At the same time, plants selected from these crop and weed species and also barley (winter barley, Hordeum vulgare), canarygrass (Phalaris minor), windgrass (Apera spica-venti), deadnettle (henbit deadnettle, Lamium amplexicaule), and chickweed (common chickweed, Stellaria media) were planted in pots containing Redi-Earth® planting medium (Scotts Company, 14111 Scottslawn Road, Marysville, Ohio 43041) comprising spaghnum peat moss, vermiculite, wetting agent and starter nutrients and treated with postemergence applications of test chemicals formulated in the same manner. Plants ranged in height from 2 to 18 cm (1- to 4-leaf stage) for postemergence treatments. Treated plants and controls were maintained in a greenhouse for 13 to 15 d, after which time all species were compared to controls and visually evaluated. Plant response ratings, summarized in Table C, are based on a scale of 0 to 100 where 0 is no effect and 100 is complete control. A dash (-) response means no test result.

[2] = system: pigweed (Amaranthus retroflexus); conditions: Preemergence; for pest or weed control at 31 g/ha: 31 g ai/ha; for pest or weed control at 62 g/ha: 62 g ai/ha; for Plant response rating, Pigweed: visual rating on scale 0 (no effect) to 100 (complete control), 13 to 15 d
Description: as §1, §2

[3] = system: galium (catchweed bedstraw, Galium aparine); conditions: Preemergence; for Plant response rating, Galium: visual rating on scale 0 (no effect) to 100 (complete control), 13 to 15 d; for pest or weed control at 31 g/ha: 31 g ai/ha; for pest or weed control at 62 g/ha: 62 g ai/ha
Description: as §1, §2

[4] = system: morningglory (Ipomoea coccinea); conditions: Preemergence; for Plant response rating: Morningglory; for Plant response rating, Morningglory: visual rating on scale 0 (no effect) to 100 (complete control), 13 to 15 d
Description: as §1, §2

[5] = system: oilseed rape (Brassica napus); conditions: Preemergence; for Plant response rating: Oilseed Rape; for Plant response rating, Oilseed Rape: visual rating on scale 0 (no effect) to 100 (complete control), 13 to 15 d
Description: as §1, §2

[6] = system: nutsedge, yellow (yellow nutsedge, Cyperus esculentus); conditions: Preemergence; for pest or weed control at 31 g/ha: 31 g ai/ha; for pest or weed control at 62 g/ha: 62 g ai/ha; for Plant response rating, Nutsedge, Yellow: visual rating on scale 0 (no effect) to 100 (complete control), 13 to 15 d
Description: as §1, §2

[7] = system: foxtail, giant (giant foxtail, Setaria faberii); conditions: Preemergence; for Plant response rating, Foxtail, Giant: visual rating on scale 0 (no effect) to 100 (complete control), 13 to 15 d; for pest or weed control at 31 g/ha: 31 g ai/ha; for pest or weed control at 62 g/ha: 62 g ai/ha
Description: as §1, §2

[8] = system: ryegrass, Italian (Italian ryegrass, Lolium multiflorum); conditions: Preemergence; for pest or weed control at 31 g/ha: 31 g ai/ha; for pest or weed control at 62 g/ha: 62 g ai/ha; for Plant response rating, Ryegrass, Italian: visual rating on scale 0 (no effect) to 100 (complete control), 13 to 15 d
Description: as §1, §2

[9] = system: ragweed (common ragweed, Ambrosia elatior); conditions: Preemergence; for pest or weed control at 31 g/ha: 31 g ai/ha; for pest or weed control at 62 g/ha: 62 g ai/ha; for Plant response rating, Ragweed: visual rating on scale 0 (no effect) to 100 (complete control), 13 to 15 d
Description: as §1, §2

[10] = system: waterhemp (common waterhemp, Amaranthus rudis); conditions: Preemergence; for Plant response rating, Waterhemp: visual rating on scale 0 (no effect) to 100 (complete control), 13 to 15 d; for Plant response rating: Waterhemp
Description: as §1, §2

[11] = system: lambsquarters (Chenopodium album); conditions: Preemergence
Description: as §1, §2

[12] = Abutilon theophrasti, pre-emergence, Velvetleaf, read-out: Plant response rating
[13] = Amaranthus retroflexus, pre-emergence, Pigweed, read-out: Plant response rating
[14] = pre-emergence, Galium, read-out: Plant response rating
[15] = Cyperus, pre-emergence, Nutsedge, Yellow, read-out: Plant response rating
[16] = Setaria faberi, pre-emergence, Foxtail, Giant, read-out: Plant response rating
[17] = Lolium multiflorum, pre-emergence, Ryegrass, Italian, read-out: Plant response rating
[18] = Ambrosia artemisiifolia, pre-emergence, Ragweed, read-out: Plant response rating

Compound: CCOc1cc(=O)n(-c2ccc(F)cc2)nc1C(O)c1ccnc(C(F)(F)F)c1 (centres unmarked) [Compound 23, 5-ethoxy-2-(4-fluorophenyl)-6-[hydroxy[2-(trifluoromethyl)-4-pyridinyl]methyl]-3(2H)-pyridazinone]
- pest or weed control at 62 g/ha [1, 12]: 100%
- Plant response rating, Velvetleaf ([1]; 8 g ai/ha): 0
- Plant response rating, Velvetleaf ([1]; 16 g ai/ha): 15
- pest or weed control at 31 g/ha [2, 13]: 100%
- pest or weed control at 62 g/ha [2, 13]: 100%
- Plant response rating, Pigweed ([2]; 8 g ai/ha): 98
- Plant response rating, Pigweed ([2]; 16 g ai/ha): 100
- Plant response rating, Galium ([3]; 8 g ai/ha): 85
- Plant response rating, Galium ([3]; 16 g ai/ha): 85
- pest or weed control at 31 g/ha [3, 14]: 90%
- pest or weed control at 62 g/ha [3, 14]: 95%
- Plant response rating ([4]; 31 g ai/ha): 55
- Plant response rating ([4]; 62 g ai/ha): 98
- Plant response rating, Morningglory ([4]; 8 g ai/ha): 10
- Plant response rating, Morningglory ([4]; 16 g ai/ha): 20
- Plant response rating ([5]; 31 g ai/ha): 80
- Plant response rating ([5]; 62 g ai/ha): 85
- Plant response rating, Oilseed Rape ([5]; 8 g ai/ha): 5
- Plant response rating, Oilseed Rape ([5]; 16 g ai/ha): 5
- pest or weed control at 31 g/ha [6, 15]: 0%
- pest or weed control at 62 g/ha [6, 15]: 0%
- Plant response rating, Nutsedge, Yellow ([6]; 8 g ai/ha): 0
- Plant response rating, Nutsedge, Yellow ([6]; 16 g ai/ha): 0
- Plant response rating, Foxtail, Giant ([7]; 8 g ai/ha): 5
- Plant response rating, Foxtail, Giant ([7]; 16 g ai/ha): 55
- pest or weed control at 31 g/ha [7, 16]: 75%
- pest or weed control at 62 g/ha [7, 16]: 90%
- pest or weed control at 31 g/ha [8, 17]: 0%
- pest or weed control at 62 g/ha [8, 17]: 5%
- Plant response rating, Ryegrass, Italian ([8]; 8 g ai/ha): 0
- Plant response rating, Ryegrass, Italian ([8]; 16 g ai/ha): 0
- pest or weed control at 31 g/ha [9, 18]: 60%
- pest or weed control at 62 g/ha [9, 18]: 55%
- Plant response rating, Ragweed ([9]; 8 g ai/ha): 0
- Plant response rating, Ragweed ([9]; 16 g ai/ha): 60
- Plant response rating, Waterhemp ([10]; 8 g ai/ha): 85
- Plant response rating, Waterhemp ([10]; 16 g ai/ha): 100
- Plant response rating ([10]; 62 g ai/ha): 100

Compound: CCOc1cc(=O)n(-c2ccc(F)cc2)nc1Cc1ccnc(C(F)(F)F)c1 [Compound 25, 5-ethoxy-2-(4-fluorophenyl)-6-[[2-(trifluoromethyl)-4-pyridinyl]methyl]-3 (2H)-pyridazinone]
- pest or weed control at 62 g/ha [1, 12]: 100%
- pest or weed control at 125 g/ha ([1]; Abutilon theophrasti, pre-emergence, Velvetleaf, 125 g ai/ha, read-out: Plant response rating): 70%
- pest or weed control at 250 g/ha ([1]; Abutilon theophrasti, pre-emergence, Velvetleaf, 250 g ai/ha, read-out: Plant response rating): 95%
- pest or weed control at 31 g/ha [2, 13]: 100%
- pest or weed control at 62 g/ha [2, 13]: 100%
- pest or weed control at 125 g/ha ([2]; Amaranthus retroflexus, pre-emergence, Pigweed, 125 g ai/ha, read-out: Plant response rating): 98%
- pest or weed control at 250 g/ha ([2]; Amaranthus retroflexus, pre-emergence, Pigweed, 250 g ai/ha, read-out: Plant response rating): 100%
- pest or weed control at 31 g/ha [3, 14]: 85%
- pest or weed control at 62 g/ha [3, 14]: 90%
- pest or weed control at 125 g/ha ([3]; pre-emergence, Galium, 125 g ai/ha, read-out: Plant response rating): 100%
- pest or weed control at 250 g/ha ([3]; pre-emergence, Galium, 250 g ai/ha, read-out: Plant response rating): 100%
- Plant response rating ([4]; 31 g ai/ha): 95
- Plant response rating ([4]; 62 g ai/ha): 95
- Plant response rating ([4]; 125 g ai/ha): 100
- Plant response rating ([4]; 250 g ai/ha): 98
- Plant response rating ([5]; 31 g ai/ha): 50
- Plant response rating ([5]; 62 g ai/ha): 95
- Plant response rating ([5]; 125 g ai/ha): 95
- Plant response rating ([5]; 250 g ai/ha): 95
- pest or weed control at 31 g/ha [6, 15]: 10%
- pest or weed control at 62 g/ha [6, 15]: 5%
- pest or weed control at 125 g/ha ([6]; Cyperus, pre-emergence, Nutsedge, Yellow, 125 g ai/ha, read-out: Plant response rating): 15%
- pest or weed control at 250 g/ha ([6]; Cyperus, pre-emergence, Nutsedge, Yellow, 250 g ai/ha, read-out: Plant response rating): 45%
- pest or weed control at 31 g/ha [7, 16]: 100%
- pest or weed control at 62 g/ha [7, 16]: 100%
- pest or weed control at 125 g/ha ([7]; Setaria faberi, pre-emergence, Foxtail, Giant, 125 g ai/ha, read-out: Plant response rating): 100%
- pest or weed control at 250 g/ha ([7]; Setaria faberi, pre-emergence, Foxtail, Giant, 250 g ai/ha, read-out: Plant response rating): 100%
- pest or weed control at 31 g/ha [8, 17]: 20%
- pest or weed control at 62 g/ha [8, 17]: 40%
- pest or weed control at 125 g/ha ([8]; Lolium multiflorum, pre-emergence, Ryegrass, Italian, 125 g ai/ha, read-out: Plant response rating): 90%
- pest or weed control at 250 g/ha ([8]; Lolium multiflorum, pre-emergence, Ryegrass, Italian, 250 g ai/ha, read-out: Plant response rating): 90%
- Plant response rating ([11]; 31 g ai/ha): 100
- Plant response rating ([11]; 62 g ai/ha): 100
- Plant response rating ([11]; 125 g ai/ha): 100
- Plant response rating ([11]; 250 g ai/ha): 100
- pest or weed control at 31 g/ha [9, 18]: 60%
- pest or weed control at 62 g/ha [9, 18]: 85%
- pest or weed control at 125 g/ha ([9]; Ambrosia artemisiifolia, pre-emergence, Ragweed, 125 g ai/ha, read-out: Plant response rating): 65%
- pest or weed control at 250 g/ha ([9]; Ambrosia artemisiifolia, pre-emergence, Ragweed, 250 g ai/ha, read-out: Plant response rating): 95%
- Plant response rating ([10]; 62 g ai/ha): 100
- Plant response rating ([10]; 125 g ai/ha): 100
- Plant response rating ([10]; 250 g ai/ha): 100
